From patent US6326372A, “Lactam and cyclic urea derivatives useful as alpha 1a adrenoceptor antagonists” (Merck & Co., Inc., priority 2000, dated 2001) come the findings set out here.

Molecules are shown by their SMILES. Structures can show the parent of a compound that is named as a salt.

For the assay, the system named is alpha 1a receptors versus alpha 1b and alpha 1d receptors. Kind of assay: Selective Binding Assays: binding to alpha 1a versus alpha 1b and alpha 1d receptors ([125I]-HEAT competition binding). Also noted: species or system human. The conditions noted are these: alpha 1a versus both alpha 1b and alpha 1d; at least about. As to the method:
Membranes prepared from the stably transfected human alpha 1a cell line (ATCC CRL 11140) were used to identify compounds that bind to the human alpha 1a adrenergic receptor. These competition binding reactions (total volume=200 μl) contained 50 mM Tris-HCl pH. 7.4, 5 mM EDTA, 150 mM NaCl, 100 pM [^125 I]-HEAT, membranes prepared from the alpha 1a cell line and increasing amounts of unlabeled ligand. Reactions were incubated at room temperature for one hour with shaking. Reactions were filtered onto Whatman GF/C glass fiber filters with a Inotec 96 well cell harvester. Filters were washed three times with ice cold buffer and bound radioactivity was determined (Ki).
Membranes prepared from stably transfected human alpha 1d and alpha 1b cell lines (ATCC CRL 11138 and CRL 11139, respectively) were used to identify compounds that selectively bind to the human alpha 1a adrenergic receptor. These competition binding reactions (total volume=200 μl) contained 50 mM Tris-HCl pH. 7.4, 5 mM EDTA, 150 mM NaCl, 100 pM [^125 I]-HEAT, membranes prepared from cell lines transfected with the respective alpha 1 subtype expression plasmid and increasing amounts of unlabeled ligand. Reactions were incubated at room temperature for one hour with shaking. Reactions were filtered onto Whatman GF/C glass fiber filters with a Inotec 96 well cell harvester. Filters were washed three times with ice cold buffer and bound radioactivity was determined (Ki).
On to `O=C1CCCC(c2ccc(F)c(F)c2)N1C(=O)NCCCN1CCC(c2ccccn2)CC1` (single isomer, unassigned) [Example 8, Dihydrochloride], for which the “fold more selective in binding to alpha 1a receptors versus binding to the alpha 1b and alpha 1d receptors” value (shortened to “fold more selective in binding”) is “at least 10 fold”. The entry for `CC1(C)CNC(=O)N(C(=O)NCCCN2CCC(c3ccc(F)cc3)CC2)C1c1ccc(F)c(F)c1` (single isomer, unassigned) [Example 18 (Step 3, Enantiomer A), Hydrochloride] is “at least 10 fold”; for `C[C@H](c1ccccc1)N1CCC(c2ccc(F)c(F)c2)N(C(=O)NCCCN2CCC(c3ccc(F)cc3)CC2)C1=O` (single isomer, unassigned) [Example 14 (Step 8, Diastereomer A), Hydrochloride] it is “at least 10 fold”; for `CC1CNC(=O)N(C(=O)NCCCN2CCC(c3ccc(F)cc3)CC2)C1c1ccc(F)c(F)c1` (single isomer, unassigned) [Example 22 (Isomer B), Hydrochloride] it is “at least 10 fold”. As for `C[C@H](c1ccccc1)N1CCC(c2ccc(F)c(F)c2)N(C(=O)NCCCN2CCC(c3ccccc3C#N)CC2)C1=O` (stereo partly drawn) [Example 15 (Table 1, entry 2), 4-(3,4-difluorophenyl)-1-((R)-α-methylbenzyl)-3-[(4'-(2-cyanophenyl)piperidin-1'-yl)propyl]aminocarbonyltetrahydro-pyrimidin-2-one], the “fold more selective in binding” value was “at least 10 fold”.

As to `CC1(C)CC(=O)N(C(=O)NCCCN2CCC(c3ccc(F)cc3)CC2)C(c2ccc(F)c(F)c2)C1.Cl` (single isomer, unassigned) [Example 2 (Enantiomer A)], the “fold more selective in binding” value was “at least 10 fold”. For the compound `CC1(C)CN(Cc2ccccc2)C(=O)N(C(=O)NCCCN2CCC(c3ccc(F)cc3)CC2)C1c1ccc(F)c(F)c1` [Example 19, (4R)- and (4S)-4-(3,4-Difluorophenyl)-5,5-dimethyl-1-benzyl-3-[(4'-(4-fluorophenyl)piperidin-1'-yl)propyl]aminocarbonyltetrahydropyrimidin-2-one Hydrochloride], the “fold more selective in binding” value is on record as “at least 10 fold”.

As for `C[C@H](c1ccccc1)N1CC(C)(C)C(c2ccc(F)c(F)c2)N(C(=O)NCCCN2CCC(c3ccc(F)cc3)CC2)C1=O` (single isomer, unassigned) [Example 18 (Step 2, Diastereomer A)], the “fold more selective in binding” value is on record as “at least 10 fold”.

On to `CC1(C)CCC(c2ccc(F)c(F)c2)N(C(=O)NCCCN2CCC(c3ccc(F)cc3)CC2)C1=O.Cl` (single isomer, unassigned) [Example 1], for which the “fold more selective in binding” value was “at least 10 fold”. The value for `CC1CC(=O)N(C(=O)NCCCN2CCC(c3ccc(F)cc3)CC2)C(c2ccc(F)c(F)c2)C1` (single isomer, unassigned) [Example 3 (Isomer A), Hydrochloride] was “at least 10 fold”; that for `O=C1CCCC(c2ccc(F)c(F)c2)N1C(=O)NCCCN1CCC2(CCc3ccccc32)CC1` (single isomer, unassigned) [Example 7 (Enantiomer A), Hydrochloride] was “at least 10 fold”; that for `O=C1CCCC(c2ccc(F)c(F)c2)N1C(=O)NCCCN1CCC(c2ccc(F)cc2)CC1` (racemic) [Example 4, (6RS)-, 6(R)-, and 6(S)-1-[3-[4-(4-Fluorophenyl)piperidin-1-yl]-propylaminocarbonyl]-6-(3,4-difluorophenyl)piperidin-2-one Hydrochloride] was “at least 10 fold”. The value for `CC1CNC(=O)N(C(=O)NCCCN2CCC(c3ccc(F)cc3)CC2)C1c1ccc(F)c(F)c1` (single isomer, unassigned) [Example 22 (Isomer C), Hydrochloride] was “at least 10 fold”; that for `O=C(NCCCN1CCC(c2ccc(F)cc2)CC1)N1C(=O)NC[C@@H](C2CC2)[C@@H]1c1ccc(F)c(F)c1` (relative stereo) [Example 21 (Isomer C), (4R,5S)-, (4S,5S)-, (4R,5R)-, and (4S,5R)-5-Cyclopropyl-4-(3,4-difluorophenyl)-3-[(4'-(4-fluorophenyl)piperidin-1'-yl)propyl]aminocarbonyltetrahydropyrimidin-2-one Hydrochlorides] was “at least 10 fold”; that for `CC1CC(=O)N(C(=O)NCCCN2CCC(c3ccc(F)cc3)CC2)C(c2ccc(F)c(F)c2)C1` (single isomer, unassigned) [Example 3 (Isomer C), Hydrochloride] was “at least 10 fold”. The entry for `N#Cc1cc(F)ccc1C1CCN(CCCNC(=O)N2C(=O)CCCC2c2ccc(F)c(F)c2)CC1` (single isomer, unassigned) [Example 9, hydrochloride] is “at least 10 fold”; for `O=C(NCCCN1CCC(c2ccc(F)cc2)CC1)N1C(=O)NCCC1c1ccc(F)c(F)c1` (single isomer, unassigned) [Example 14 (Step 9, Enantiomer A), Hydrochloride] it is “at least 10 fold”.

On to `O=C(NCCCN1CCC(c2ccc(F)cc2)CC1)N1C(=O)NC[C@H](C2CC2)[C@@H]1c1ccc(F)c(F)c1` (relative stereo) [Example 21 (Isomer D), (4R,5S)-, (4S,5S)-, (4R,5R)-, and (4S,5R)-5-Cyclopropyl-4-(3,4-difluorophenyl)-3-[(4'-(4-fluorophenyl)piperidin-1'-yl)propyl]aminocarbonyltetrahydropyrimidin-2-one Hydrochlorides], for which the “fold more selective in binding” value was “at least 10 fold”. The value for `COc1cc(F)ccc1[C@H]1CC[C@H](N2CC[C@@H](NC(=O)N3C(=O)N([C@H](C)c4ccccc4)CCC3c3ccc(F)c(F)c3)C2)CC1` (stereo partly drawn) [Example 15 (Table 1, entry 5), 3-[[3(R)-1-[trans-4-(2-methoxy-4-fluorophenyl)cyclohexyl]pyrrolidin-3-yl]-aminocarbonyl]-1-((R)-α-methylbenzyl)-4-(3,4-difluorophenyl)pyrimidin-2-one] was “at least 10 fold”. As to `O=C1CCCC(c2ccc(F)c(F)c2)N1C(=O)N[C@@H]1CCN([C@H]2CC[C@H](c3ccccn3)CC2)C1` (single isomer, unassigned) [Example 10 (Enantiomer A), Dihydrochloride], the “fold more selective in binding” value is “at least 10 fold”. The entry for `N#CC1(c2ccc(F)cc2)CCN(CCCNC(=O)N2C(=O)CCCC2c2ccc(F)c(F)c2)CC1` (single isomer, unassigned) [Example 6 (Enantiomer A), Hydrochloride] is “at least 10 fold”.

As to `O=C(NCCCN1CCC(c2ccc(F)cc2)CC1)N1C(=O)NCC2(CCCCC2)C1c1ccc(F)c(F)c1` (single isomer, unassigned) [Example 20 (Isomer B), (4'R)- and (4'S)-Spirocyclohexane-[1,5']-{4-(3,4-difluorophenyl)-3-[(4'-(4-fluorophenyl)piperidin-1'-yl)propyl]aminocarbonyl}tetrahydropyrimidin-2-one Hydrochloride], the “fold more selective in binding” value is “at least 10 fold”. Consider `O=C(NCCCN1CCC(c2ccc(F)cc2)CC1)N1C(=O)NC[C@@H](C2CC2)[C@@H]1c1ccc(F)c(F)c1` (relative stereo) [Example 21 (Isomer A), (4R,5S)-, (4S,5S)-, (4R,5R)-, and (4S,5R)-5-Cyclopropyl-4-(3,4-difluorophenyl)-3-[(4'-(4-fluorophenyl)piperidin-1'-yl)propyl]aminocarbonyltetrahydropyrimidin-2-one Hydrochlorides], for which the “fold more selective in binding” value is “at least 10 fold”.

`C[C@H](c1ccccc1)N1CCC(c2ccc(F)c(F)c2)N(C(=O)NCCCN2CCC(c3ccccn3)CC2)C1=O` (stereo partly drawn) [Example 15 (Table 1, entry 1), 4-(3,4-difluorophenyl)-1-((R)-α-methylbenzyl)-3-[(4'-(2-pyridyl)piperidin-1'-yl)propyl]aminocarbonyltetrahydropyrimidin-2-one]: the “fold more selective in binding” value was “at least 10 fold”. The entry for `CC1(C)CNC(=O)N(C(=O)NCCCN2CCC(c3ccc(F)cc3)CC2)C1c1ccc(F)c(F)c1` (single isomer, unassigned) [Example 18 (Step 3, Enantiomer B), Hydrochloride] is “at least 10 fold”.
